Measurements reported in US12097181B2, “Swine maternal neonatal pheromone” (Texas Tech University System, priority 2019, dated 2024).
Entries after “also recorded” stand apart in the source; their conditions may differ.

Test system: piglets
Assay: Preference test: piglet preference for feeders sprayed with maternal semiochemicals
Format: in vivo, Swine (Sus scrofa)
Details: for overall preference index (PI) / percentage of time piglets spent interacting with the feeder: feeder sprayed with 5 mL testing solution (4.5 mg skatole and/or 9.0 mg myristic acid) vs mineral oil control feeder, litters 7±2 d of age, two 5-h test days; for piglet preference or aversion for sprayed feeder compared to control: feeder sprayed with testing solution vs mineral oil control
Description: Piglets used in this study were from a terminal cross between PIC Camborough genetic line sows and a terminal sire. Litters were housed in conventional slatted floor farrowing crates (1.52 m×2.13 m). All piglets were ear notched, teeth clipped, and injected with iron at 3 days of age. During this day, all males within a litter were also castrated by farm personnel. Prior to the study, piglets had no creep feeder. The preference test was performed in their home farrowing crate. Preference tests were conducted to determine piglet preference for skatole and myristic acid. First, nine litters (105 piglets) were used to evaluate piglet preference toward a solution containing both, skatole and myristic acid (N=9). Once piglet preference for a solution containing both molecules was determined, 8 litters (79 piglets) were used to evaluate piglet preference for skatole (N=8) and another 8 litters (80 piglets) to evaluate piglet preference for myristic acid (N=8) individually. Each litter was tested only once to ensure that piglets were tested at the same age and that they were not previously exposed to a feeder or a semiochemical.
At 7±2 days of age, two three-hole galvanized steel baby pig feeders were placed at each front corner of the farrowing crate for five hours for two consecutive days (FIG. 6). […] The sow was present during each five hours trial. Each feeder contained 100 g of pig pre-starter (MoorMan's ShowTec Prestarter, ADM, Quincy, IL) and was sprayed with either 5 mL of mineral oil (control) or 5 mL of the testing solution. The solution was sprayed on the feeder and not the feed. The 5 mL of the testing solution contained 4.5 mg of skatole and/or 9.0 mg of myristic acid. This concentration was selected based on the estimated concentration of each analyte in 150 g of lactating sow faeces based on GC/MS analysis. On the second testing day, feeder locations were switched to correct for side biases. A single observer following a 30 second scan sampling method, observed the behavior of each piglet in the litter at 30 second intervals to determine the percentage of time piglets spent interacting with each feeder during the five-hour period each testing day. A total of 600 observations were recorded per litter in each testing day. The percentage of time piglets within a litter spent interacting with each feeder was calculated by dividing the number of time piglets were observed interacting with a feeder over the total number of observations. Interacting with the feeder was defined as when piglets were sniffing, touching or licking the area of the feeder sprayed with the solution or eating or rooting the feed. A preference index was calculated for each feeder by dividing the amount of time piglets were observed interacting with a feeder by the sum of the number of times piglets were observed interacting with both feeders.
For each litter (experimental unit), an overall feed intake, preference index, and percentage of time interacted with each feeder was obtained from both testing days. Difference in overall feed intake, preference index, and percentage of time piglets spent interacting with the control and the feeder sprayed with the testing solutions were analyzed using the Wilcoxon-singed ranked test. […] All statistical analyses were performed using SAS 9.4. (SAS Inst., Inc., Cary, NC). A statistically significant difference was based on a P value≤0.05.

SMILES	overall preference index (PI)	percentage of time piglets spent interacting with the feeder	piglet preference or aversion for sprayed feeder compared to control
Cc1c[nH]c2ccccc12 [Skatole, 3-methylindole]	0.51	0.54%	No preference or aversion; also recorded: No preference
CCCCCCCCCCCCCC(=O)O [Myristic acid, Tetradecanoic acid]	0.47	0.48%	No preference or aversion; also recorded: No preference
